Each structure is given as a SMILES string.

This experiment relates to NBD1. The experiment is described as follows: Aggregation analysis of NBD1 thermal stability by differential static light scattering (DSLS). Format: binding, Human. Particulars: 100 μM compound; ΔTagg versus DMSO control. The protocol: Purified recombinant NBD1 was produced using previously described methods (A. Schmidt, J. L. Mendoza, P. J. Thomas (2011) Biochemical and Biophysical Approaches to Probe CFTR Structure (365-376) M. D. Amaral, K. Kunzelmann (eds.), Cystic Fibrosis, Methods in Molecular Biology 741, Springer Science+Business Media). The effect of test compounds on thermal stability of NBD1 was evaluated by differential static light scattering (DSLS) using the Harbinger Stargazer-384 instrument (Epiphyte Three, Toronto, Canada). Test compounds were dissolved and diluted to desired concentrations in 100% DMSO. The compounds or DMSO controls (100 nL) were stamped into wells of a […] low volume optical plate (Corning Inc., Corning, NY) using the Echo 555 acoustic liquid handler (Labcyte Inc., San Jose, CA).
NBD1 protein was diluted to 0.2 mg/ml in S200 buffer (50 mM Tris-HCl, 150 mM NaCl, 5 mM MgCl2, 2 mM ATP, 2 mM DTT, pH7.6) containing 1% glycerol. 10 uL of protein solution was aliquoted into the 384-well plate harboring the test compounds and 10 uL mineral oil was overlayed onto the protein solution, using the epMotion robotic liquid handler (Eppendorf North America, Hauppauge, NY). After placing into the Stargazer instrument, the plate was heated at 1° C. per minute to 70° C. Images were captured from 25° C. to 70° C. every 0.5° C. At the end of the experiment run, instrument software integrated image files and analyzed data automatically. A […] regression curve was generated for each well, representing the increase in light scattering over time. A temperature of aggregation (Tagg) was calculated based on the inflection point of the curve. To better compare data across experiments the average Tagg for DMSO control wells was calculated and subtracted from values for wells containing compounds to obtain a “ΔTagg” value. These ΔTagg values reflect stabilizing efficacy of the compounds.
As to `Cc1cnc(Cc2nnc(-c3cccc(Oc4ccc5[nH]ccc5c4)c3)[nH]2)s1` [Compound 16, 2-((5-(3-((1H-indol-5-yl)oxy)phenyl)-4H-1,2,4-triazol-3-yl)methyl)-5-methylthiazole], the “DSLS NBD1/3D Human Stability delta-T (° C.) @ 100 (μM)” value (shortened to “DSLS NBD1/3D Human Stability delta-T”) is “C (C: ≤4° C.)”.

Regarding `Cn1nccc1C(O)c1cnc(-c2cccc(Oc3ccc4[nH]ccc4c3)c2)[nH]1` (stereo not drawn) [Compound 26, (2-(3-((1H-indol-5-yl)oxy)phenyl)-1H-imidazol-5-yl)(1-methyl-1H-pyrazol-5-yl)methanol], the “DSLS NBD1/3D Human Stability delta-T” value was “C (C: ≤4° C.)”.

Take `Cc1csc(Cc2nnc(-c3cccc(Oc4ccc5[nH]ccc5c4)c3)[nH]2)n1` [Compound 15, 2-((5-(3-((1H-indol-5-yl)oxy)phenyl)-4H-1,2,4-triazol-3-yl)methyl)-4-methylthiazole]: the “DSLS NBD1/3D Human Stability delta-T” value is listed as “C (C: ≤4° C.)”.

With `O=C(O)CCc1ncc(Cc2cnc(-c3cc(Oc4c(F)cc5[nH]ccc5c4F)ccc3F)[nH]2)s1` [Compound 2, 3-(5-((2-(5-((4,6-difluoro-1H-indol-5-yl)oxy)-2-fluorophenyl)-1H-imidazol-5-yl)methyl)thiazol-2-yl)propanoic acid], the “DSLS NBD1/3D Human Stability delta-T” value is recorded as “B (B: 4-8° C.)”.

Consider `Cc1c[nH]c2cc(F)c(Oc3ccc(F)c(-c4ccn(Cc5cnc(CCC(N)=O)s5)n4)c3)cc12` [Compound 7, 3-(5-((3-(2-fluoro-5-((6-fluoro-3-methyl-1H-indol-5-yl)oxy)phenyl)-1H-pyrazol-1-yl)methyl)thiazol-2-yl)propanamide], for which the “DSLS NBD1/3D Human Stability delta-T” value was “C (C: ≤4° C.)”.

Regarding `Cn1cc(Cc2cnc(-c3cccc(Oc4ccc5[nH]ccc5c4)c3)[nH]2)cn1` [Compound 28, 5-(3-(5-((1-methyl-1H-pyrazol-4-yl)methyl)-1H-imidazol-2-yl)phenoxy)-1H-indole], the “DSLS NBD1/3D Human Stability delta-T” value is “C (C: ≤4° C.)”.

As for `O=C(NCC(O)C(F)(F)F)c1c(Oc2cccc(-c3nnc(C(O)c4cncs4)[nH]3)c2)ccc2[nH]ccc12` (stereo not drawn) [Compound 42, 5-(3-(5-(hydroxy(thiazol-5-yl)methyl)-4H-1,2,4-triazol-3-yl)phenoxy)-N-(3,3,3-trifluoro-2-hydroxypropyl)-1H-indole-4-carboxamide], the “DSLS NBD1/3D Human Stability delta-T” value is on record as “B (B: 4-8° C.)”.

With `c1cc(Oc2ccc3[nH]ccc3c2)cc(-c2nnc(Cc3nccs3)[nH]2)c1` [Compound 12, 2-((5-(3-((1H-indol-5-yl)oxy)phenyl)-4H-1,2,4-triazol-3-yl)methyl)thiazole], the “DSLS NBD1/3D Human Stability delta-T” value is listed as “C (C: ≤4° C.)”.

Consider `O=C(O)CCc1cccc(Cc2cc(N3CCCCC3=O)n(-c3cc(Oc4c(F)cc5[nH]ccc5c4F)ccc3F)n2)c1` [Compound 57, 3-[3-[[1-[5-[(4,6-difluoro-1H-indol-5-yl)oxy]-2-fluoro-phenyl]-5-(2-oxo-1-piperidyl)pyrazol-3-yl]methyl]phenyl]propanoic acid], for which the “DSLS NBD1/3D Human Stability delta-T” value was “C (C: ≤4° C.)”.

Take `c1cc(Oc2ccc3[nH]ccc3c2)cc(-c2nnc(Cc3ccsc3)[nH]2)c1` [Compound 11, 5-(3-(5-(thiophen-3-ylmethyl)-4H-1,2,4-triazol-3-yl)phenoxy)-1H-indole]: the “DSLS NBD1/3D Human Stability delta-T” value was “C (C: ≤4° C.)”.

On to `OCc1c(Oc2cccc(-c3nnc(C(O)c4cncs4)[nH]3)c2)ccc2[nH]ccc12` (stereo not drawn) [Compound 40, (5-(3-((4-(hydroxymethyl)-1H-indol-5-yl)oxy)phenyl)-4H-1,2,4-triazol-3-yl)(thiazol-5-yl)methanol], for which the “DSLS NBD1/3D Human Stability delta-T” value was “B (B: 4-8° C.)”.

`CCOc1cc(C(C)c2cccc(CCC(=O)O)c2F)nn1-c1cc(Oc2c(F)cc3[nH]ccc3c2F)ccc1F` (stereo not drawn) [Compound 49, 3-(3-(1-(1-(5-((4,6-Difluoro-1H-indol-5-yl)oxy)-2-fluorophenyl)-5-ethoxy-1H-pyrazol-3-yl)ethyl)-2-fluorophenyl)propanoic acid]: the “DSLS NBD1/3D Human Stability delta-T” value is “B (B: 4-8° C.)”.

On to `c1cc(Oc2ccc3[nH]ccc3c2)cc(-c2nnc(Cc3cscn3)[nH]2)c1` [Compound 13, 4-((5-(3-((1H-indol-5-yl)oxy)phenyl)-4H-1,2,4-triazol-3-yl)methyl)thiazole], for which the “DSLS NBD1/3D Human Stability delta-T” value is “C (C: ≤4° C.)”.

As for `Cc1ccc(C(O)c2c[nH]c(-c3cccc(Oc4ccc5[nH]ccc5c4)c3)n2)s1` (stereo not drawn) [Compound 20, (2-(3-((1H-indol-5-yl)oxy)phenyl)-1H-imidazol-4-yl)(5-methylthiophen-2-yl)methanol], the “DSLS NBD1/3D Human Stability delta-T” value is “B (B: 4-8° C.)”.

Consider `Cn1nccc1C(O)c1cnc(-c2cccc(Oc3ccc4[nH]cnc4c3)c2)[nH]1` (stereo not drawn) [Compound 29, (2-(3-((1H-benzo[d]imidazol-5-yl)oxy)phenyl)-1H-imidazol-5-yl)(1-methyl-1H-pyrazol-5-yl)methanol], for which the “DSLS NBD1/3D Human Stability delta-T” value is “C (C: ≤4° C.)”.

With `CC(C1=NN(c2cc(Oc3c(F)cc4[nH]ccc4c3F)ccc2F)C(=O)C1)c1cccc(CCC(=O)O)c1F` (stereo not drawn) [Compound 51, 3-(3-(1-(1-(5-((4,6-difluoro-1H-indol-5-yl)oxy)-2-fluorophenyl)-5-oxo-4,5-dihydro-1H-pyrazol-3-yl)ethyl)-2-fluorophenyl)propanoic acid], the “DSLS NBD1/3D Human Stability delta-T” value was “B (B: 4-8° C.)”.

As to `CN(C)CCNC(=O)c1c(Oc2cccc(-c3nnc(C(O)c4cncs4)[nH]3)c2)ccc2[nH]ccc12` (stereo not drawn) [Compound 41, N-(2-(dimethylamino)ethyl)-5-(3-(5-(hydroxy(thiazol-5-yl)methyl)-4H-1,2,4-triazol-3-yl)phenoxy)-1H-indole-4-carboxamide], the “DSLS NBD1/3D Human Stability delta-T” value is listed as “C (C: ≤4° C.)”.

Take `Cn1cc(C(O)c2nnc(-c3cccc(Oc4ccc5[nH]ccc5c4)c3)[nH]2)cn1` (stereo not drawn) [Compound 30, (5-(3-((1H-indol-5-yl)oxy)phenyl)-4H-1,2,4-triazol-3-yl)(1-methyl-1H-pyrazol-4-yl)methanol]: the “DSLS NBD1/3D Human Stability delta-T” value is given as “B (B: 4-8° C.)”.

In the case of `NC(=O)CCc1ncc(Cc2cnc(-c3cc(Oc4c(F)cc5[nH]ccc5c4F)ccc3F)[nH]2)s1` [Compound 3, 3-(5-((2-(5-((4,6-difluoro-1H-indol-5-yl)oxy)-2-fluorophenyl)-1H-imidazol-5-yl)methyl)thiazol-2-yl)propanamide], the “DSLS NBD1/3D Human Stability delta-T” value was “C (C: ≤4° C.)”.

On to `CC(c1cccc(CCC(=O)O)c1F)c1nn(-c2cc(Oc3c(F)cc4[nH]ccc4c3F)ccc2F)c2c1CCC2` (stereo not drawn) [Compound 59, 3-[3-[1-[1-[5-[(4,6-difluoro-1H-indol-5-yl)oxy]-2-fluoro-phenyl]-5,6-dihydro-4H-cyclopenta[c]pyrazol-3-yl]ethyl]-2-fluoro-phenyl]propanoic acid], for which the “DSLS NBD1/3D Human Stability delta-T” value was “C (C: ≤4° C.)”.

As to `O=C(O)CCc1cccc(Cc2cc(NCCO)n(-c3cc(Oc4c(F)cc5[nH]ccc5c4F)ccc3F)n2)c1` [Compound 56, 3-(3-((1-(5-((4,6-difluoro-1H-indol-5-yl)oxy)-2-fluorophenyl)-5-((2-hydroxyethyl)amino)-1H-pyrazol-3-yl)methyl)phenyl) propanoic acid], the “DSLS NBD1/3D Human Stability delta-T” value is given as “B (B: 4-8° C.)”.
